This is an account of results in ChEMBL document CHEMBL1153983, “Anti-HBV agents. Part 2: synthesis and in vitro anti-hepatitis B virus activities of alisol A derivatives” (Bioorg Med Chem Lett, 2009).

A short description of series [1]: Selectivity index, ratio of CC50 for human HepG2(2.2.15) cells to IC50 for HBV surface antigen secretion. The format is functional.
The test system of series [2] is Hepatitis B virus. Nature of the series: Antiviral activity against HBV assessed as inhibition of viral surface antigen secretion. The format is functional, organism-based.
Series [3] in a line: Cytotoxicity against human HepG2(2.2.15) cells. The format is cell-based.
The test system of series [4] is Hepatitis B virus. Nature of the series: Antiviral activity against HBV assessed as inhibition of viral early antigen secretion. The class given is functional, organism-based.
The nature of series [5]: Selectivity index, ratio of CC50 for human HepG2(2.2.15) cells to IC50 for HBV early antigen secretion. The class given is functional.

A word on the IC50: it is the point on the concentration scale where inhibition reaches its midpoint. For orientation: CC50 means the concentration that lowers cell viability or growth by half. In the case of `CCOCC(=O)O[C@@H](C[C@@H](C)[C@]12CC[C@@]3(C)[C@@]1(C[C@H](OC(=O)COCC)[C@H]1[C@@]4(C)CCC(=O)C(C)(C)[C@@H]4CC[C@@]13C)O2)[C@@H](OC(=O)COCC)C(C)(C)O`, the “Ratio CC50/IC50” value in series [1] was 1.9; in series [5] it was less than 1. The IC50 is 130 µM with Hepatitis B virus [2] and more than 250 µM in the series on Hepatitis B virus [4]. Moreover, the CC50 in series [3] was 250 µM.
The corresponding values for `CCOCC(=O)O[C@@H](C[C@@H](C)C1=C2C[C@H](OC(=O)COCC)[C@H]3[C@@]4(C)CCC(=O)C(C)(C)[C@@H]4CC[C@]3(C)[C@@]2(C)CC1)[C@@H](OC(=O)COCC)C(C)(C)OC(=O)COCC` are more than 11, more than 8.7, 200 µM, 260 µM and more than 2300 µM.
For `COCC(=O)O[C@@H](C[C@@H](C)C1=C2C[C@H](OC(=O)COC)[C@H]3[C@@]4(C)CCC(=O)C(C)(C)[C@@H]4CC[C@]3(C)[C@@]2(C)CC1)[C@@H](OC(=O)COC)C(C)(C)OC(=O)COC`, in that order: more than 90, more than 93, 28 µM, 27 µM and more than 2500 µM.
The corresponding values for `C=C(C)[C@H](OC(=O)COC)[C@H](C[C@@H](C)C1=C2C[C@H](OC(=O)COC)[C@H]3[C@@]4(C)CCC(=O)C(C)(C)[C@@H]4CC[C@]3(C)[C@@]2(C)CC1)OC(=O)COC` are more than 42, more than 24, 68 µM, 120 µM and more than 2800 µM.
Turning to `C[C@H](C[C@H](OC(=O)CNC(=O)OC(C)(C)C)[C@@H](OC(=O)CNC(=O)OC(C)(C)C)C(C)(C)O)C1=C2C[C@H](OC(=O)CNC(=O)OC(C)(C)C)[C@H]3[C@@]4(C)CCC(=O)C(C)(C)[C@@H]4CC[C@]3(C)[C@@]2(C)CC1`, the results for the “Ratio CC50/IC50” value in series [1] and in series [5] were more than 4.7 and more than 16, respectively. For the same compound, the IC50 in the series on Hepatitis B virus [2] is 320 µM; in the series with Hepatitis B virus [4], 94 µM. The compound further displayed a CC50 in series [3] of more than 1500 µM.
The corresponding values for `COCC(=O)O[C@@H](C[C@@H](C)[C@]12CC[C@@]3(C)[C@@]1(C[C@H](OC(=O)COC)[C@H]1[C@@]4(C)CCC(=O)C(C)(C)[C@@H]4CC[C@@]13C)O2)[C@@H](OC(=O)COC)C(C)(C)O` are 1.2, less than 1, 900 µM, more than 1100 µM and 1100 µM.
As to `CC(=O)NCC(=O)O[C@@H](C[C@@H](C)C1=C2C[C@H](OC(=O)CNC(C)=O)[C@H]3[C@@]4(C)CCC(=O)C(C)(C)[C@@H]4CC[C@]3(C)[C@@]2(C)CC1)[C@@H](OC(=O)CNC(C)=O)C(C)(C)O`, the “Ratio CC50/IC50” value in series [1] and in series [5] was less than 1 throughout. In addition, the IC50 with Hepatitis B virus [2] is 290 µM; in the series with Hepatitis B virus [4], 880 µM. Also, the CC50 in series [3] is 270 µM.
Take `CC(=O)OCC(=O)O[C@@H](C[C@@H](C)[C@]12CC[C@@]3(C)[C@@]1(C[C@H](OC(=O)COC(C)=O)[C@H]1[C@@]4(C)CCC(=O)C(C)(C)[C@@H]4CC[C@@]13C)O2)[C@@H](OC(=O)COC(C)=O)C(C)(C)O`: the “Ratio CC50/IC50” value is 2.1 in series [1] and less than 1 in series [5]. In addition, the IC50 is 120 µM in the series on Hepatitis B virus [2] and more than 250 µM in the series with Hepatitis B virus [4]. In series [3], this compound registered a CC50 of 250 µM.
The corresponding values for `CCOCC(=O)O[C@@H](C[C@@H](C)[C@]12CC[C@@]3(C)[C@@]1(C[C@H](OC(=O)COCC)[C@H]1[C@@]4(C)CCC(=O)C(C)(C)[C@@H]4CC[C@@]13C)O2)[C@@H](OC(=O)COCC)C(C)(C)OC(=O)COCC` are more than 5.6, more than 4.4, 250 µM, 320 µM and more than 1400 µM.
For `C=C(C)[C@H](OC(=O)COCC)[C@H](C[C@@H](C)C1=C2C[C@H](OC(=O)COCC)[C@H]3[C@@]4(C)CCC(=O)C(C)(C)[C@@H]4CC[C@]3(C)[C@@]2(C)CC1)OC(=O)COCC`, in that order: more than 60, more than 40, 20 µM, 30 µM and more than 1200 µM.
The corresponding values for `CCOCC(=O)O[C@@H](C[C@@H](C)C1=C2C[C@H](OC(=O)COCC)[C@H]3[C@@]4(C)CCC(=O)C(C)(C)[C@@H]4CC[C@]3(C)[C@@]2(C)CC1)[C@@H](OC(=O)COCC)C(C)(C)O` are more than 6.5, more than 1.3, 400 µM, 2000 µM and more than 2600 µM.
Regarding `CC(=O)OCC(=O)O[C@@H](C[C@@H](C)C1=C2C[C@H](OC(=O)COC(C)=O)[C@H]3[C@@]4(C)CCC(=O)C(C)(C)[C@@H]4CC[C@]3(C)[C@@]2(C)CC1)[C@@H](OC(=O)COC(C)=O)C(C)(C)O`, the “Ratio CC50/IC50” value in series [1] is more than 1.3; in series [5], less than 1. Further, the IC50 in the series with Hepatitis B virus [2] was less than 38 µM; with Hepatitis B virus [4] it was more than 51 µM. This compound also yielded a CC50 in series [3] of 51 µM.
For `C[C@H](C[C@H](OC(=O)CN1C(=O)c2ccccc2C1=O)[C@@H](OC(=O)CN1C(=O)c2ccccc2C1=O)C(C)(C)O)C1=C2C[C@H](OC(=O)CN3C(=O)c4ccccc4C3=O)[C@H]3[C@@]4(C)CCC(=O)C(C)(C)[C@@H]4CC[C@]3(C)[C@@]2(C)CC1`, in that order: more than 1.2, more than 11, 1200 µM, 140 µM and more than 1500 µM.
In the case of `Nc1ccn([C@@H]2CS[C@H](CO)O2)c(=O)n1` [LAMIVUDINE], the results for the “Ratio CC50/IC50” value in series [1] and in series [5] were 1.7 and 0.82, respectively. Moreover, the IC50 in the series on Hepatitis B virus [2] is 18000 µM; with Hepatitis B virus [4], 38000 µM. This compound registered a CC50 in series [3] of 31000 µM.
